# From article PMC5216056 (Nature Communications, 2017)
# Where “and” joins values, the source holds several entries; their conditions need not be identical. Identical values can stand only once. Entries after “also recorded” stand apart in the source; their conditions may differ. Like-named read-outs stand apart in the source and are kept apart here.
# Key:
# mCB2R [1] = biological target: T1, mCB2R (Mus musculus, UniProt P47936); assay: PathHunter β-arrestin recruitment assay; type: cell-based
# mCB2R [2] = biological target: T1, mCB2R; assay: Operational analysis of biased signalling
# [3] = Pharmacokinetics, oral administration in mice; type: in vivo, mouse
# C57BL6/J mice [4] = assay: Triad assay: catalepsy; type: in vivo, mouse
# C57BL6/J mice [5] = assay: Triad assay: antinociception; type: in vivo, mouse
# C57BL6/J mice [6] = assay: Triad assay: hypothermia; type: in vivo, mouse
# A2A (h) = biological target: T2, A2A (h) (Homo sapiens, UniProt P29274); assay: CEREP panel; type: binding; settings: read-out: % inhibition A2A (h)
# T2 construct: CEREP
# B2 (h) = biological target: T3, B2 (h) (Homo sapiens, UniProt P30411); assay: CEREP panel; type: binding; settings: read-out: % inhibition B2 (h)
# T3 construct: CEREP
# T3 sequence (P30411 1-391): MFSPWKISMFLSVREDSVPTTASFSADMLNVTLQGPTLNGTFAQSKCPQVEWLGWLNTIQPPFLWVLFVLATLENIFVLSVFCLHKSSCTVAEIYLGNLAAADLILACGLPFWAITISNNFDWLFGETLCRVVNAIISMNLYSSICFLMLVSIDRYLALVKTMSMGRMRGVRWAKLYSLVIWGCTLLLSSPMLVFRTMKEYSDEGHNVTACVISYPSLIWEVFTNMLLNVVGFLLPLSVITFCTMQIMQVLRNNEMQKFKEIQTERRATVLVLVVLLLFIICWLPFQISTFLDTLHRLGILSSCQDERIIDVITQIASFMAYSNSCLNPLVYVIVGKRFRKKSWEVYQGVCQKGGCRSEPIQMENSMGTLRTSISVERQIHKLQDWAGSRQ
# BB = assay: CEREP panel; type: binding; settings: 10 µM
# BZD (peripheral) = biological target: T4, BZD (peripheral) (Rattus norvegicus, UniProt P16257); assay: CEREP panel; type: binding; settings: read-out: % inhibition BZD (peripheral)
# T4 construct: CEREP
# [7] = system: Ca2+ channel (verapamil site); assay: CEREP panel; type: binding; settings: 10 µM
# MC4 (h) = biological target: T5, MC4 (h) (Homo sapiens, UniProt P32245); assay: CEREP panel; type: binding; settings: read-out: % inhibition MC4 (h)
# T5 construct: CEREP (contract assay)
# MT1 (ML1A) (h) = biological target: T6, MT1 (ML1A) (h) (Homo sapiens, UniProt P48039); assay: CEREP panel; type: binding; settings: read-out: % inhibition MT1 (ML1A) (h)
# T6 construct: CEREP (contract assay)
# NK2 (h) = biological target: T7, NK2 (h) (Homo sapiens, UniProt P21452); assay: CEREP panel; type: binding; settings: read-out: % inhibition NK2 (h)
# T7 construct: CEREP (contract assay)
# T7 sequence (P21452 1-398): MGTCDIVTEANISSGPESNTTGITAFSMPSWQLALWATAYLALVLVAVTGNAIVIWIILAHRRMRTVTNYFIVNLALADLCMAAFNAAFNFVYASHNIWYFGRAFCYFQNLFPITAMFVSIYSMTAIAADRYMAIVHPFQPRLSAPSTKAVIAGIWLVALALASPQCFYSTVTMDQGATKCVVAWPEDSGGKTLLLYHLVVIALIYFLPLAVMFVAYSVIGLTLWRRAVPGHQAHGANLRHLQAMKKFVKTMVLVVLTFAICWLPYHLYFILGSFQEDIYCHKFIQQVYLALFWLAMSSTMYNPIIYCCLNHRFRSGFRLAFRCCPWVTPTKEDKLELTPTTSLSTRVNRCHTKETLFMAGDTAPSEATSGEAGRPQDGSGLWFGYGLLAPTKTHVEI
# P2Y = assay: CEREP panel; type: binding; settings: 10 µM
# PDGF = assay: CEREP panel; type: binding; settings: 10 µM
# physchem [8] = settings: pH 6.5, aqueous buffer, thermodynamic from solid
# physchem [9] = settings: organic solvent or mixture
# in vitro [10] = settings: human, hepatocytes
# in vitro [11] = settings: C57BL6, mouse, hepatocytes
# mCB2R [12] = biological target: T1, mCB2R; assay: [35S]GTPγS assay; type: biochemical; set-up: from tissue; host or cells: spleen of male C57BL/6J mice
# Cl- channel (GABA-gated) = assay: CEREP panel; type: binding; settings: 10 µM
# in vitro [13] = settings: both, human, microsomes, pH 7.4
# in vitro [14] = settings: male, C57BL/6J, mouse, microsomes, pH 7.4
# [15] = male, C57BL/6J or C57BL/6JRj, mouse, plasma, po, 5 mg/kg
# [16] = 1-100 mg kg^−1 i.p., cumulative, mice
# T1 sequence (P47936 whole entry): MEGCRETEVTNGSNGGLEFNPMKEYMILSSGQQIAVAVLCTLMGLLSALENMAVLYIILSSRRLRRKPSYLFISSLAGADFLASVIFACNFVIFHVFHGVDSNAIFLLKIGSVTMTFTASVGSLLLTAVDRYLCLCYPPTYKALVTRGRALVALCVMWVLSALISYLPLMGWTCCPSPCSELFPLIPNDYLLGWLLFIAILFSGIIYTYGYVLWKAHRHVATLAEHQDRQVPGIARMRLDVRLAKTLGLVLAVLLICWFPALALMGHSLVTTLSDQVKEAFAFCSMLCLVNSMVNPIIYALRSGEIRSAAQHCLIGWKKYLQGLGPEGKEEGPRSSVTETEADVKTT
# T6 sequence (P48039 whole entry): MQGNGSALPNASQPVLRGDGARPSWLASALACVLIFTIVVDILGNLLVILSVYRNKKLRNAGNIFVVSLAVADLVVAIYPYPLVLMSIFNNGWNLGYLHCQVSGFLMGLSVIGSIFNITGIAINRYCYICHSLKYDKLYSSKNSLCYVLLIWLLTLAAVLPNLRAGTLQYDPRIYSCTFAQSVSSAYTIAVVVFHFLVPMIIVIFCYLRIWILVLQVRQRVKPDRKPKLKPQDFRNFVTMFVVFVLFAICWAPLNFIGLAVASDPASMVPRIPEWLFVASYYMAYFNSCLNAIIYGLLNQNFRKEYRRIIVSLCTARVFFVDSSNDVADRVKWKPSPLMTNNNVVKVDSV
# T2 sequence (P29274 whole entry): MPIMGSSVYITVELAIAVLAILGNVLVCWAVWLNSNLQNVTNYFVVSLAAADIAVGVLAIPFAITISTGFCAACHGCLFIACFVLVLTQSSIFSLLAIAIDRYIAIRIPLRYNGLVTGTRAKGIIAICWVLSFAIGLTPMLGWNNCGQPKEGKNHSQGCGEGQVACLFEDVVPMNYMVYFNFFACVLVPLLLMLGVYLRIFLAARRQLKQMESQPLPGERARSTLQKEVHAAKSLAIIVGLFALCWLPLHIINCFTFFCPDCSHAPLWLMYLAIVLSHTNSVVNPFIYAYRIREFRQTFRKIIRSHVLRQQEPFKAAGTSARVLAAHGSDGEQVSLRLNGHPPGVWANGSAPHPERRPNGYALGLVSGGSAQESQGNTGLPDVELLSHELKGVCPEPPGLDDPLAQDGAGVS
# T4 sequence (P16257 whole entry): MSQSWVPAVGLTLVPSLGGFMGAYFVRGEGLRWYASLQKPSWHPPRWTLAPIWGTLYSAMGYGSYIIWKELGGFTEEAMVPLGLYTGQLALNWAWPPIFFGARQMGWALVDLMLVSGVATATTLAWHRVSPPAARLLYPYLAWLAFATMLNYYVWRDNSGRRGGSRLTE
# T5 sequence (P32245 whole entry): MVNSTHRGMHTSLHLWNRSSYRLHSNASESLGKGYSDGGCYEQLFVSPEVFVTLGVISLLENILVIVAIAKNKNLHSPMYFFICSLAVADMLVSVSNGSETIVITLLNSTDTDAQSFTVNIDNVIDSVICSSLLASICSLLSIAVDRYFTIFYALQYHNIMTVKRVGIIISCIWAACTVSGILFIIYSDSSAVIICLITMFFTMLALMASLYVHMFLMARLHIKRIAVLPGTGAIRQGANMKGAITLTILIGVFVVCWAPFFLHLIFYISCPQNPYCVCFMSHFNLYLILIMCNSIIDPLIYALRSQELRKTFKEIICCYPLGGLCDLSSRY
smiles,measurement,setting,value
CCCCCCC(C)(C)c1cc(OC)c([C@@H]2C=C(CO)[C@@H]3C[C@H]2C3(C)C)c(OC)c1 [HU308],EC50,mCB2R [1],339 nM
same,Emax,mCB2R [1]; read-out: Emax ± SEM β-AR recruitment mCB2R,69 ± 3%
same,GTPγS-cAMP bias factor (BF),mCB2R [2],25.8
same,GTPγS-cAMP ΔΔlogR,mCB2R [2],1.41 ± 0.27
same,LogR GTPγS,mCB2R [2],6.77 ± 0.05
same,LogR cAMP,mCB2R [2],8.07 ± 0.22
same,LogR β-AR,mCB2R [2],6.22 ± 0.10
same,β-AR-GTPγS bias factor (BF),mCB2R [2],0.19
same,β-AR-GTPγS ΔΔlogR,mCB2R [2],-0.72 ± 0.13
same,β-AR-cAMP bias factor (BF),mCB2R [2],4.9
same,β-AR-cAMP ΔΔlogR,mCB2R [2],0.69 ± 0.28
same,ΔLogR GTPγS,mCB2R [2]; reference CP55940,-1.04 ± 0.07
same,ΔLogR cAMP,mCB2R [2]; reference CP55940,-2.46 ± 0.26
same,ΔLogR β-AR,mCB2R [2]; reference CP55940,-1.77 ± 0.12
same,RE GTPγS,mCB2R [2]; relative effectiveness,0.09
same,RE cAMP,mCB2R [2]; relative effectiveness,0.004
same,RE β-AR,mCB2R [2]; relative effectiveness,0.02
same,AUC(0-inf),[3]; [15],298 ng·h/mL
same,AUC(0-t),[3]; [15],253 ng·h/mL
same,half-life,[3]; [15],198 min
same,Cmax,"[3]; male, C57BL/6J or C57BL/6JRj, mouse, plasma, po, 5 mg/kg, p.o., read-out: Cmax",201 ng/mL
same,Tmax,"[3]; male, C57BL/6J or C57BL/6JRj, mouse, plasma, po, 5 mg/kg, p.o., read-out: Tmax",30 min
same,AUCinf/dose,[3]; p.o.,59.7 kg·ng·h/mL/mg
same,"catalepsy, cannabimimetic effect",C57BL6/J mice [4]; [16],did not produce detectable; also recorded: lacked appreciable pharmacological effects
same,"antinociception, cannabimimetic effect",C57BL6/J mice [5]; [16],did not produce detectable; also recorded: lacked appreciable pharmacological effects
same,"hypothermia, cannabimimetic effect",C57BL6/J mice [6]; [16],did not produce detectable; also recorded: lacked appreciable pharmacological effects
same,inhibition at 10 µM,A2A (h),25%
same,inhibition at 10 µM,B2 (h),-21%
same,% inhibition BB,BB,3%
same,inhibition at 10 µM,BZD (peripheral),12%
same,% inhibition Ca2+ channel (verapamil site),[7],3%
same,inhibition at 10 µM,MC4 (h),1%
same,inhibition at 10 µM,MT1 (ML1A) (h),-5%
same,inhibition at 10 µM,NK2 (h),68%
same,% inhibition P2Y,P2Y,1%
same,% inhibition PDGF,PDGF,-28%
same,solubility kinetic,physchem [8],< 0.75 µg/mL and < 1.8 µM
same,solubility,physchem [9],2.06 µg/mL and 5 µM
same,hepatocyte CLint,in vitro [10],8.3 µL/min/1e6 cells
same,hepatocyte CLint,in vitro [11],4.7 µL/min/1e6 cells
same,EC50,mCB2R [12],148 nM
same,Emax,mCB2R [12]; read-out: Emax ± SEM GTPγS mCB2R,96 ± 3%
Cc1c(C(=O)NN2CCCCC2)nn(-c2ccc(Cl)cc2Cl)c1-c1ccc(Cl)cc1 [SR141716A],antagonism of HU210-induced catalepsy,"C57BL6/J mice [4]; mouse, in vivo",attenuated; also recorded: significantly antagonized
same,antagonism of HU210-induced antinociception,"C57BL6/J mice [5]; mouse, in vivo",attenuated; also recorded: significantly antagonized
same,antagonism of HU210-induced hypothermia,"C57BL6/J mice [6]; mouse, in vivo",attenuated; also recorded: significantly antagonized
same,inhibition at 10 µM,MT1 (ML1A) (h); 10 µM,62%
same,% inhibition Cl- channel (GABA-gated),Cl- channel (GABA-gated),83%
same,solubility kinetic,physchem [8],< 0.733 µg/mL and < 1.6 µM
same,solubility,physchem [9],1.23 µg/mL and 2.7 µM
same,microsomal CLint,in vitro [13],20 µL/min/mg
same,microsomal CLint,in vitro [14],109 µL/min/mg
same,hepatocyte CLint,in vitro [10],5.7 µL/min/1e6 cells
same,hepatocyte CLint,in vitro [11],65 µL/min/1e6 cells
